Reference: the supplement of paper PMC13380429

Key:
Conditions in all cases: 72 h
Caco-2 [1] = assay: cell viability relative to DMSO; higher = less toxic
U2OS [2] = assay: as above
Vero E6 [3] = assay: as above
HepG2 [4] = assay: as above
Calu-3 [5] = assay: as above
Caco-2 [6] = assay: drug sensitivity score (DSS) for viability; higher = more toxic; extreme values may be limits of the assay
U2OS [7] = assay: as above
Vero E6 [8] = assay: as above
HepG2 [9] = assay: as above
Calu-3 [10] = assay: as above
Caco-2 [11] = assay: relative viability EC50 (midpoint between 100% and the lowest measured viability); higher = less toxic
U2OS [12] = assay: as above
Vero E6 [13] = assay: as above
HepG2 [14] = assay: as above
Calu-3 [15] = assay: as above

Row | Compound | cell viability (Caco-2 [1]; 1 nM) [%] | cell viability (Caco-2 [1]; 10 nM) [%] | cell viability (Caco-2 [1]; 100 nM) [%] | cell viability (Caco-2 [1]; 1000 nM) [%] | cell viability (Caco-2 [1]; 10000 nM) [%] | cell viability (U2OS [2]; 1 nM) [%] | cell viability (U2OS [2]; 10 nM) [%] | cell viability (U2OS [2]; 100 nM) [%] | cell viability (U2OS [2]; 1000 nM) [%] | cell viability (U2OS [2]; 10000 nM) [%] | cell viability (Vero E6 [3]; 1 nM) [%] | cell viability (Vero E6 [3]; 10 nM) [%] | cell viability (Vero E6 [3]; 100 nM) [%] | cell viability (Vero E6 [3]; 1000 nM) [%] | cell viability (Vero E6 [3]; 10000 nM) [%] | cell viability (HepG2 [4]; 1 nM) [%] | cell viability (HepG2 [4]; 10 nM) [%] | cell viability (HepG2 [4]; 100 nM) [%] | cell viability (HepG2 [4]; 1000 nM) [%] | cell viability (HepG2 [4]; 10000 nM) [%] | cell viability (Calu-3 [5]; 1 nM) [%] | cell viability (Calu-3 [5]; 10 nM) [%] | cell viability (Calu-3 [5]; 100 nM) [%] | cell viability (Calu-3 [5]; 1000 nM) [%] | cell viability (Calu-3 [5]; 10000 nM) [%] | drug sensitivity score (Caco-2 [6]) | drug sensitivity score (U2OS [7]) | drug sensitivity score (Vero E6 [8]) | drug sensitivity score (HepG2 [9]) | drug sensitivity score (Calu-3 [10]) | relative viability EC50 (Caco-2 [11]) [µM] | relative viability EC50 (U2OS [12]) [µM] | relative viability EC50 (Vero E6 [13]) [µM] | relative viability EC50 (HepG2 [14]) [µM] | relative viability EC50 (Calu-3 [15]) [µM]
1 | CCc1nn(CCO)c(CC)c1Oc1cc(C#N)cc(C#N)c1 [lersivirine] | 109 | 95.8 | 97.9 | 98.8 | 105 | 100 | 97.6 | 95.7 | 102 | 102 | 96.8 | 95.6 | 97.5 | 90.8 | 100 | 92.1 | 110 | 94.7 | 95.9 | 105 | 102 | 99.4 | 107 | 114 | 104 | 0 | 0 | 0 | 0 | 0 | > 10 | > 10 | > 10 | > 10 | > 10
2 | c1ccc2c(c1)Sc1ccccc1N2C[C@H]1CN2CCC1CC2 [levomequitazine] | 99.6 | 106 | 106 | 105 | 82.6 | 97.6 | 102 | 97.8 | 101 | 90.4 | 115 | 98.2 | 99.3 | 98.6 | 93.5 | 104 | 97.7 | 97.9 | 98.2 | 86.9 | 105 | 104 | 102 | 108 | 86.3 | 0.3 | 0 | 0 | 0.2 | 0 | > 10 | > 10 | > 10 | > 10 | > 10
3 | COc1cccc(N(C)C(=S)Oc2ccc3c(c2)CCCC3)n1 [liranaftate] | 97.4 | 97.7 | 96.2 | 109 | 97.5 | 97.2 | 98.3 | 95.5 | 96.6 | 95.8 | 97.2 | 99.4 | 99.6 | 95.2 | 99.3 | 105 | 97.7 | 101 | 100 | 110 | 96.9 | 98.4 | 102 | 105 | 97.6 | 0 | 0 | 0 | 0 | 0 | > 10 | > 10 | > 10 | > 10 | > 10
4 | Cl/C(=C\n1cncn1)c1ccc(Cl)cc1Cl [loreclezole] | 91.1 | 92.8 | 94.6 | 95 | 104 | 95.9 | 100 | 96 | 99.7 | 108 | 101 | 102 | 98.8 | 101 | 96.2 | 96.5 | 98.9 | 104 | 90 | 87.7 | 100 | 94.7 | 105 | 113 | 97.6 | 0 | 0 | 0 | 0.5 | 0 | > 10 | > 10 | > 10 | > 10 | > 10
5 | CC(C)c1ccc2c(c1)CC[C@H]1[C@](C)(CN)CCC[C@]21C [lylamine] | 109 | 103 | 106 | 98.4 | 16.7 | 103 | 98.5 | 103 | 97.1 | 19.4 | 108 | 108 | 105 | 97.8 | 3.1 | 104 | 109 | 92.3 | 110 | 0 | 96 | 98 | 97.8 | 104 | 1.4 | 4.8 | 4.9 | 5.7 | 4.9 | 5.2 | 3.03 | 2.9 | 3.01 | 3.64 | 3.37
